Among the data in US11254668B2, “Pyrazolo[1,5-A]pyrazin-4-yl and related derivatives” (Pfizer Inc., priority 2017, dated 2022) are IC50 values, retold here.

In general, IC50 refers to the concentration needed to halve the response being measured.

Assay type in all cases: biochemical
Experiment [1] deals with JAK2 (Homo sapiens (Human), UniProt O60674). Kind of experiment: JAK Caliper Enzyme Assay at 1 mM ATP, JAK2. The procedure, abridged:
(§1)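 Inhibition is measured as reduced phosphorylation of a synthetic peptide by the recombinant human kinase domain at 1 mM ATP. Conditions give 20–30% conversion at room temperature before EDTA quench, and on-chip separation of labelled substrate and product yields percent conversion for dose–response plotting.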

In experiment [2] the target is JAK1 (Homo sapiens (Human), UniProt P23458). Nature of the experiment: JAK Caliper Enzyme Assay at 1 mM ATP, JAK1. The gist of the method:
(§2)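 Recombinant human kinase domains phosphorylated a fluorescent synthetic peptide at room temperature, with enzyme level and time tuned to 20% to 30% conversion; EDTA stop buffer ended reactions. Mobility-shift separation gave percent product from peak heights, normalised to DMSO and positive controls, and IC50s came from concentration–effect curves.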

In experiment [3] the target is TYK2 (Homo sapiens (Human), UniProt P29597). Kind of experiment: JAK Caliper Enzyme Assay at 1 mM ATP, TYK2. The gist of the method:
as §1

Experiment [4] has as its target JAK3 (Homo sapiens (Human), UniProt P52333). Kind of experiment: JAK Caliper Enzyme Assay at 1 mM ATP, JAK3. The procedure, abridged:
as §2

Each structure is given as a SMILES string. A value given as a limit tells only on which side of the number the result lay.

JAK2, sequence (O60674 849-1124): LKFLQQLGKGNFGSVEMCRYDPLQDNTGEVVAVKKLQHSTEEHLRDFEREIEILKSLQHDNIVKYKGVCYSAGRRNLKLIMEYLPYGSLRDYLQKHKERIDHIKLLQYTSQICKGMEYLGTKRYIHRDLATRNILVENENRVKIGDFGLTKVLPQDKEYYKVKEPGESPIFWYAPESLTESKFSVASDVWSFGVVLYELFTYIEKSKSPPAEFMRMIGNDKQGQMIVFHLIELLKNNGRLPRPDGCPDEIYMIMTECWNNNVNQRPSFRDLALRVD
JAK1, sequence (P23458 875-1153): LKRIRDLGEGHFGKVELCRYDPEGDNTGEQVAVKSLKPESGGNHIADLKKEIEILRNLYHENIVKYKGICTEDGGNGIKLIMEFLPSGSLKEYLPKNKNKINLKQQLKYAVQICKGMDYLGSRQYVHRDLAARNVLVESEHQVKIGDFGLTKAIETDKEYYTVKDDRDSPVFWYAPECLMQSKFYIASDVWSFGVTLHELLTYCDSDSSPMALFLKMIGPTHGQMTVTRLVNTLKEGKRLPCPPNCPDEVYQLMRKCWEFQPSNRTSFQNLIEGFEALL
JAK3, sequence (P52333 822-1111): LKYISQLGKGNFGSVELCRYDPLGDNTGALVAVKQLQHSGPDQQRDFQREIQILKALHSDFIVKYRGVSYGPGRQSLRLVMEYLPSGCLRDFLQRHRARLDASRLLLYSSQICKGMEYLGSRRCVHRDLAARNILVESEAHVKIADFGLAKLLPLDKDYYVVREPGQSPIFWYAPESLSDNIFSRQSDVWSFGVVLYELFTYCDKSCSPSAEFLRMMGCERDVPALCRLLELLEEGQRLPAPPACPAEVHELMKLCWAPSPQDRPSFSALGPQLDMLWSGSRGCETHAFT
TYK2, sequence (P29597 897-1176): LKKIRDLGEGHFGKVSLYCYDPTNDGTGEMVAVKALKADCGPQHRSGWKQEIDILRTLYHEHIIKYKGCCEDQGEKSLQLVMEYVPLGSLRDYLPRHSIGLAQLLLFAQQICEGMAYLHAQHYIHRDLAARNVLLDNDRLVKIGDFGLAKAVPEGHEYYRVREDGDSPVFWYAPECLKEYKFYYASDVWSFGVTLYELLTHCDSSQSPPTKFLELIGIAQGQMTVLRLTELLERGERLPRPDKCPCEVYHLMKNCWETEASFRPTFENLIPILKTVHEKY

For `N#CC[C@]1(n2ccc(-c3nc(-c4ccnc(CO)c4)cc4ncccc34)n2)C[C@@H](C#N)C1` [Example 213, cis-3-(cyanomethyl)-3-(3-{7-[2-(hydroxymethyl)pyridin-4-yl]-1,6-naphthyridin-5-yl}-1H-pyrazol-1-yl)cyclobutanecarbonitrile], the IC50 in experiment [1] came to 46 nM; in experiment [2], 87 nM; in experiment [3], 19 nM; in experiment [4], 4330 nM.
On the same counts, the results for `N#CC[C@]1(n2ccc(-c3nc(-c4cccc(C(N)=O)n4)cc4ncccc34)n2)C[C@H](C#N)C1` [Example 214, 6-(5-{1-[cis-3-cyano-1-(cyanomethyl)cyclobutyl]-1H-pyrazol-3-yl}-1,6-naphthyridin-7-yl)pyridine-2-carboxamide] are 471 nM, 2020 nM, 53 nM and above 10000 nM.
As for `N#CCC1(n2ccc(-c3nc(-c4ccnc(C(N)=O)c4)cc4ncccc34)n2)CN(CC(F)(F)F)C1` [Example 215, 4-(5-{1-[3-(cyanomethyl)-1-(2,2,2-trifluoroethyl)azetidin-3-yl]-1H-pyrazol-3-yl}-1,6-naphthyridin-7-yl)pyridine-2-carboxamide], the IC50 in experiment [1] was 2190 nM; in experiment [2] it was 6010 nM; in experiment [3] it was 175 nM; in experiment [4], above 10000 nM.
On the same counts, the results for `N#CC[C@]1(n2ccc(-c3nc(-c4ccnc(C(N)=O)c4)cc4ncccc34)n2)C[C@H](C#N)C1` [Example 216, 4-(5-{1-[cis-3-cyano-1-(cyanomethyl)cyclobutyl]-1H-pyrazol-3-yl}-1,6-naphthyridin-7-yl)pyridine-2-carboxamide] are 117 nM, 464 nM, 36 nM and above 10000 nM.
`Cc1ncc(-c2cc3ncccc3c(-c3ccn(C4(CC#N)CN(S(C)(=O)=O)C4)n3)n2)cc1N` [Example 217, [3-{3-[7-(5-amino-6-methylpyridin-3-yl)-1,6-naphthyridin-5-yl]-1H-pyrazol-1-yl}-1-(methylsulfonyl)azetidin-3-yl]acetonitrile]: the IC50 in experiment [1] was 1620 nM; in experiment [2], 9340 nM; in experiment [3] it was 189 nM; in experiment [4], above 10000 nM.
As to `Cc1ccc(-c2cc3ncccc3c(-c3ccn(C4(CC#N)CN(S(C)(=O)=O)C4)n3)n2)c(N)n1` [Example 218, [3-{3-[7-(2-amino-6-methylpyridin-3-yl)-1,6-naphthyridin-5-yl]-1H-pyrazol-1-yl}-1-(methylsulfonyl)azetidin-3-yl]acetonitrile], the IC50 was 562 nM in experiment [1], 2700 nM in experiment [2], 38 nM in experiment [3] and above 10000 nM in experiment [4].
For `Cc1cc(-c2cc3ncccc3c(-c3ccn(C4(CC#N)CN(S(C)(=O)=O)C4)n3)n2)cnc1N` [Example 219, [3-{3-[7-(6-amino-5-methylpyridin-3-yl)-1,6-naphthyridin-5-yl]-1H-pyrazol-1-yl}-1-(methylsulfonyl)azetidin-3-yl]acetonitrile], the IC50 was 1750 nM in experiment [1], 6410 nM in experiment [2], 488 nM in experiment [3] and above 10000 nM in experiment [4].
The like results for `Cc1cc(-c2cc3ncccc3c(-c3ccn([C@]4(CC#N)C[C@@H](C#N)C4)n3)n2)cc(N)n1` [Example 220, trans-3-{3-[7-(2-amino-6-methylpyridin-4-yl)-1,6-naphthyridin-5-yl]-1H-pyrazol-1-yl}-3-(cyanomethyl)cyclobutanecarbonitrile] were, in that order, 768 nM, 2140 nM, 92 nM and above 10000 nM.
As to `Cc1cc(-c2cc3ncccc3c(-c3ccn([C@]4(CC#N)C[C@H](C#N)C4)n3)n2)cc(N)n1` [Example 221, cis-3-{3-[7-(2-amino-6-methylpyridin-4-yl)-1,6-naphthyridin-5-yl]-1H-pyrazol-1-yl}-3-(cyanomethyl)cyclobutanecarbonitrile], the IC50 is 93 nM in experiment [1], 230 nM in experiment [2], 21 nM in experiment [3] and 6650 nM in experiment [4].
